Results from ChEMBL document CHEMBL1139938, “Syntheses and antibacterial activity of phendioxy substituted cyclic enediynes” (2007).
Values after ≈ are worked out from the molar mass of the structure shown. Active and inactive are the calls of the source. No cut-off for these calls is given here.

How the values were obtained:
Salmonella typhimurium [1] = assay: Antibacterial activity against Salmonella Typhimurium isolate; assay type: functional, Salmonella enterica subsp. enterica serovar Typhimurium; conditions: Salmonella enterica
Pseudomonas aeruginosa [2] = assay: Antibacterial activity against Pseudomonas aeruginosa ATCC 11775 upto 512 ug/mL; assay type: functional, organism-based
Escherichia coli [3] = assay: Antibacterial activity against Escherichia coli ATCC 25668 upto 512 ug/mL; assay type: functional, organism-based
Staphylococcus aureus [4] = assay: Antibacterial activity against Staphylococcus aureus isolate upto 512 ug/mL; assay type: functional, organism-based
Escherichia coli [5] = assay: Antibacterial activity against Escherichia coli ATCC 25668; assay type: functional
Pseudomonas aeruginosa [6] = assay: Antibacterial activity against Pseudomonas aeruginosa ATCC 11775; assay type: functional
Staphylococcus aureus [7] = assay: Antibacterial activity against Staphylococcus aureus isolate; assay type: functional
Salmonella typhimurium [8] = assay: Antibacterial activity against Salmonella Typhimurium isolate upto 512 ug/mL; assay type: functional, organism-based; conditions: Salmonella enterica subsp. enterica serovar Typhimurium

Compound	MIC (Salmonella typhimurium [1]) [µg/mL]	Activity (Pseudomonas aeruginosa [2])	Activity (Escherichia coli [3])	Activity (Staphylococcus aureus [4])	MIC (Escherichia coli [5]) [µg/mL]	MIC (Pseudomonas aeruginosa [6]) [µg/mL]	MIC (Staphylococcus aureus [7]) [µg/mL]	Activity (Salmonella typhimurium [8])
Brc1ccc(/N=C/c2ccc3cc2OCC#C/C=C\C#CCO3)cc1	128 (≈ 326 µM)	inactive	inactive	inactive				
C1#CCOc2cccc(c2)OCC#C/C=C\1	8 (≈ 38.1 µM)	inactive		inactive	4 (≈ 19 µM)			
CN(C)[C@@H]1C(O)=C(C(N)=O)C(=O)[C@@]2(O)C(O)=C3C(=O)c4c(O)cccc4[C@@](C)(O)[C@H]3C[C@@H]12 [TETRACYCLINE]	0.5 (≈ 1.13 µM)				2 (≈ 4.5 µM)	1 (≈ 2.25 µM)	2 (≈ 4.5 µM)	
Cc1ccc(/N=C/c2ccc3cc2OCC#C/C=C\C#CCO3)cc1	128 (≈ 391 µM)	inactive		inactive	256 (≈ 782 µM)			
Cc1ccc(NCc2ccc3cc2OCC#C/C=C\C#CCO3)cc1	128 (≈ 389 µM)				4 (≈ 12.1 µM)	32 (≈ 97.1 µM)	16 (≈ 48.6 µM)	
Clc1ccc(NCc2ccc3cc2OCC#C/C=C\C#CCO3)cc1	512 (≈ 1460 µM)	inactive		inactive	64 (≈ 183 µM)			
Brc1ccc(NCc2ccc3cc2OCC#C/C=C\C#CCO3)cc1		inactive		inactive	128 (≈ 325 µM)			inactive
O=Cc1ccc2cc1OCC#C/C=C\C#CCO2	128 (≈ 537 µM)	inactive			256 (≈ 1070 µM)		8 (≈ 33.6 µM)	
C#CCOc1ccc(C=O)c(OCC#C)c1	> 1000				> 1000	> 1000	> 1000	
C1#CCOc2ccc(CNc3ccccc3)c(c2)OCC#C/C=C\1	16 (≈ 50.7 µM)				4 (≈ 12.7 µM)	16 (≈ 50.7 µM)	8 (≈ 25.4 µM)	
C1#CCOc2ccc(/C=N/c3ccccc3)c(c2)OCC#C/C=C\1	64 (≈ 204 µM)				128 (≈ 408 µM)	128 (≈ 408 µM)	128 (≈ 408 µM)	
C#CCOc1cccc(OCC#C)c1	> 1000				> 1000	> 1000	> 1000	
OCc1ccc2cc1OCC#C/C=C\C#CCO2	128 (≈ 533 µM)	inactive			8 (≈ 33.3 µM)		4 (≈ 16.6 µM)	
